Here are results for 34 compounds from a melting point compilation (Tetko et al.; mined from patent text by program, amines drawn as free bases though some values may be those of a salt).

Molecules are shown by their SMILES.

In turn, `COc1cc2ncnc(N3CCc4ccc(N)cc43)c2cc1OC` displayed a melting point of 215 to 218 °C. In the case of `O=C(O)c1cc2cc(Cl)ccc2nc1NC(Cc1ccc(C#Cc2ccccc2)cc1)C(=O)O` (centres undefined), the melting point was 164 to 173 °C. As for `COc1ccc2c(c1)CC(NC(=S)NCCOC(=O)c1ccccc1)CC2` (centres undefined), the melting point lay in the range of 103 to 106 °C. The same measure for `Cc1nc(C2CC2)nc(C)c1N1CCCn2c1nc1c(Cl)ccc(C(OC(F)F)C(F)(F)F)c12` (centres undefined): 191 to 193 °C. For `Nc1nc(O)c2cc(CN(Cc3c[nH]c(=O)[nH]c3=O)c3ccc(C(=O)N[C@@H](CCC(=O)O)C(=O)O)cc3)ccc2n1` the value was 250 to 255 °C. `COc1cccc(C=C2C(=O)NC(=O)N2C)c1`: the melting point lay within 195 to 197 °C. For `COC(=O)CC(=O)c1cncc(OC)n1` the value was 66 °C. The same measure for `O=C(c1ccc(C(F)(F)F)cc1)N1CCC(=Cc2ccc(C3=NCCO3)cc2)CC1`: 142 °C.

In turn, `CCCCOC(=O)Cc1ccc(CNS(=O)(=O)c2ccccc2)cc1` yielded a melting point of 60.5 to 61 °C. The same measure for `C=C(F)C(=O)Oc1ccc(C#N)cc1`: 78 to 79 °C; for `CS(=O)(=O)Nc1ccc(C(=O)c2ccc(Cl)cc2)cc1`: 198 to 200 °C. For `CCCOc1ccccc1-c1nc2nc(NC(C)=O)ncc2c(=O)[nH]1` the value was 273 to 274 °C; for `CSc1nnc(-c2ccc3occ(-c4ccc(OC(F)(F)F)cc4)c3c2)o1`, 138 to 139 °C. For `Cc1cc(Nc2ccccc2)nc(-n2nc(C)cc2C)n1` the value was 134 to 139 °C; for `O=[N+]([O-])c1cc2c(cc1Sc1ccccn1)CCC2`, 74 °C; for `CSc1cc(C(F)(F)F)ccc1C(=O)O`, 178 to 179 °C.

For the compound `CCOc1ccc(-c2c(Cl)c(CCl)nc3sc4c(c23)CCN(C(=O)OCc2ccccc2)C4)cc1`, the melting point lay in the range of 159 to 161 °C. The same measure for `O=C1CCCN1C(=O)Oc1ccc(Br)cc1`: 107 to 108 °C; for `CN1CCN(c2ccc(-c3[nH]nc4c3C(=O)c3c(NC(=O)NNC(=O)c5cccnc5)cccc3-4)cc2)CC1`: 238 °C. For `CCN(CC)c1ccc(S(=O)(=O)N2CCCC2=S)cc1` the value was 183 to 184 °C; for `CCOC(=NC(=O)Nc1ccc(OC(F)(F)F)cc1)c1ccccc1F`, 93 to 95 °C; for `COc1ccc(C2=NNC(=O)[C@H]3CCCC[C@@H]23)cc1OC1CCCC1` (relative stereo), 175 to 176 °C. The same measure for `CCOC(=O)c1cnc2c(c1O)CC(C)CC2` (centres undefined): 228 to 231 °C; for `CC(C)(C)c1cccc(S(=O)(=O)n2c(C(O)c3ccc(C(=O)O)s3)cc3cc(C(F)(F)F)ccc32)c1` (centres undefined): 90 °C; for `CC(C)(CCC(C)(C)NCc1ccccc1O)NCc1ccccc1O`: 111 to 112 °C. The compound `O=C1c2ccc(OC3CCCCC3)cc2CCC1CN1CCC(O)(c2ccccc2)CC1` (centres undefined) returned a melting point of 175 to 177 °C.

Compound `Cc1ccc(-n2nccn2)c(C(=O)O)c1` yielded a melting point of 168 °C. Compound `CCC(CC)Cn1nc(-c2ccc(O)cc2O)c2cccc(C(F)(F)F)c21` yielded a melting point of 89 to 90 °C. For `CC(C)(C)C(=O)O[C@H]1[C@H](N2CCCC2)c2cc(C#N)ccc2OC1(C)C` (relative stereo) the value was 109 to 110 °C. For `Cn1c(COc2ccc(CC3SC(=O)NC3=O)cc2)nc2cc(Br)cnc21` (centres undefined) the value was 204 to 205 °C; for `c1ccc(-c2nc(COc3ccc(CCCCn4ccnc4)cc3)co2)cc1`, 113 to 114 °C.

In turn, `CCCCCCCCCCCC(=O)Oc1ccc(-c2nc(-c3ccc(N(C)C)cc3)c(C)[nH]2)cc1OC` displayed a melting point of 110 to 112 °C. For `O=C1OC(O)(c2ccccc2)C2(Cl)CCCCC12` (centres undefined) the value was 89 to 92 °C; for `Cn1nc(C(F)(F)F)nc1NC(=O)CCCOc1cccc(CN2CCCCC2)c1`, 96 to 97 °C.

In general, melting point refers to the temperature, or range, at which the solid turns liquid.
